Experimental data taken from US7981443B2, “Method of treating sleep disordered breathing using topiramate” (priority 2000, dated 2011).

Assays:
[1] = system: obstructive sleep apnoea (OSA); test: Double-blind, placebo controlled cross-over study of topiramate in patients with light to moderate OSA; format: in vivo
Method: A double-blind, placebo controlled cross-over study of topiramate was undertaken in 2 patients with light to moderate OSA (A/H index, 22 and 35 on previous screening). Topiramate (100 mg b.i.d or corresponding placebo) was administered for 10 days in each cross-over period. A wash-out period of one week was applied between the two treatment periods.

carbonic anhydrase = details: cited from earlier work
[2] = system: aminohydroxymethylisoxazole propionic acid (AMPA) glutamate receptor subtype site; details: rat hippocampal pyramidal neurones; effect at AMPA site; cited from earlier work
[3] = system: N-methyl-D-aspartate (NMDA) mediated glutamate receptor subtype site; details: cited from earlier work
[4] = system: voltage-gated sodium electrogenesis; details: specific action on voltage-gated sodium electrogenesis in certain areas of the nervous system; cited from earlier work
[5] = system: glutamate in the hippocampus; details: in vivo; cited from earlier work

CC1(C)O[C@@H]2[C@@H](CO[C@@]3(COS(N)(=O)=O)OC(C)(C)O[C@@H]23)O1 [topiramate, 2,3:4,5-di-o-isopropylidene-β-D-fructopyranose sulfamate]
Blood pressure ([1]; between the two study nights (topiramate vs placebo)): did not differ | Side effects ([1]; during the study period): No side effects were reported | A/H index during topiramate ([1]; first patient (placebo 24), 100 mg b.i.d for 10 days): 9 | A/H index during topiramate ([1]; second patient (placebo 33), 100 mg b.i.d for 10 days): 6 | Daytime sleepiness ([1]; spontaneous reporting by both patients, 100 mg b.i.d for 10 days): markedly reduced | Inhibition of the enzyme carbonic anhydrase (carbonic anhydrase): weakly inhibit | Kainate-elicited excitatory response [2]: blocked | Effect at the NMDA mediated glutamate receptor subtype site [3]: had no effect | Cellular activity / cellular bursting activity [4]: dose-dependently reduce cellular activity | Abnormally high concentrations of glutamate in the hippocampus [5]: reduce
